The test system of series [1] is SFR Balb/c mice. Description: Elevated Plus Maze (EPM), SFR Balb/c mice. Format: in vivo. Conditions: for time spent in the open arms of the EPM: SFR Balb/c treated during adolescence (P35 to P60), vs non-treated controls.
Series [2] has as its system SFR Balb/c mice. Description: Forced Swim Test (FST), SFR (non-stressed) Balb/c mice. Format: in vivo. Conditions: for immobility in the FST: SFR Balb/c treated during adolescence (P35 to P60), vs SFR controls.
Protocol: (§4) For chronic drug treatment, drugs were administered via the drinking water. […] Suberoylanidide hydroxamic acid (SAHA) was dissolved in DMSO and subsequently diluted about 100 fold in water containing 0.2% sucrose. Mice consumed about 200 mg/kg/day of SAHA (Butler et al., 2000) and their controls received drinking water supplemented with the same amount of DMSO and sucrose that SAHA-treated animals received. […] In these experiments, mice received a single intraperitoneal injection of SAHA (100 mg/kg) at P35, followed by SAHA treatment via the drinking water for the next 3 days.
Three days later, mice were tested in a modified version of Forced Swim Test (FST), i.e., a 6 minute exposure on day 1 followed by another 6 minute exposure on day 2.
Series [3] addresses HDAC1 (Homo sapiens, UniProt Q13547). Conditions: at concentration below 10^−4M; Ito et al., 2002; cited from earlier work.
Series [4] has as its target T1, HDAC3 (Homo sapiens, UniProt O15379). Conditions: at concentration below 10^−4M; Ito et al., 2002; cited from earlier work.
Target sequence in this assay (O15379 whole entry, species assumed): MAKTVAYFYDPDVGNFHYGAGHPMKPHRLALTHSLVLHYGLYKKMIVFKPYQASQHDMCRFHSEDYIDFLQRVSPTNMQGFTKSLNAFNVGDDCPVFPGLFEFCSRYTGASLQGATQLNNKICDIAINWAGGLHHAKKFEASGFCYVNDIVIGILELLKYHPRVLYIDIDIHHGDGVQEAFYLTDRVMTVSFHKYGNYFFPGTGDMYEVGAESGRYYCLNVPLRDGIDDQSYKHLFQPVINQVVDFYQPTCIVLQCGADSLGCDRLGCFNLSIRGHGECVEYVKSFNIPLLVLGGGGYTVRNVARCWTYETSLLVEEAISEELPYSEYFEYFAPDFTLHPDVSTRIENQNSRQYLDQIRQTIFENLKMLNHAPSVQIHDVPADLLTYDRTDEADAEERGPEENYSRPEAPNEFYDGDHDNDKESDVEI
The subject of series [5] is adenosine receptors. Conditions: at concentration below 10^−4M; Ito et al., 2002; cited from earlier work.
In series [6] the test system is phosphodiesterases. Conditions: at concentration below 10^−4M; Ito et al., 2002; cited from earlier work.
The test system of series [7] is IMS Balb/c mice. Kind of series: Forced Swim Test (FST), IMS Balb/c mice.
Source text: (§5) Briefly, offspring of first-time mothers were separated from their dam daily for three hours (from 1:00 to 4:00 P.M.) from postnatal age day 2 (P2) until P15. Control animals were standard facility-reared (SFR) pups of first-time mothers. Housing and husbandry conditions were identical for IMS and SFR mice. Pups were weaned at P28 and group housed by sex (five animals randomly selected from at least five different litters). Since this study involved behavioral tests of emotive phenotypes that are sensitive to differences in the estrus cycle of females, all studies disclosed below were conducted on male mice.
as §4
Their times spent in open arms and the number of arm crossings was recorded. […]
Series [8] concerns IMS Balb/c mice. Kind of series: Elevated Plus Maze (EPM), IMS Balb/c mice.
Source text: as §5, §4
Their times spent in open arms and the number of arm crossings was recorded. Three days later, mice were tested in a modified version of Forced Swim Test (FST), i.e., a 6 minute exposure on day 1 followed by another 6 minute exposure on day 2.
Series [9] can be described thus: Plasma concentration of theophylline under drinking water treatment. Conditions: over 24 hours of theophylline-supplemented (10^−4M) drinking water consumption.
Protocol: as §4
The test system of series [10] is extracellular 5-HT levels. Conditions: McEwen et al., 2010, Mennini et al., 1987; cited from earlier work.
Series [11] concerns the target T1, HDAC3. Conditions: read-out: IC50 HDAC 3; cited from earlier work.
Target sequence in this assay (O15379 whole entry, species assumed): as above
Target sequence in this assay (Q9Y618 395-489 partner limits assumed, species assumed): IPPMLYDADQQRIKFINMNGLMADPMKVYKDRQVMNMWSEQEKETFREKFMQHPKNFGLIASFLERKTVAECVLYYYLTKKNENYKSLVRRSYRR
Series [12] relates to histone H3 and H4 proteins in the forebrain neocortex. Description: Western blotting of histone proteins, forebrain neocortex of IMS Balb/c mice. The series is classed as in vivo. As to the method: (§1) Forebrain neocortical tissue was dissected in phosphate-buffered saline supplemented with protease inhibitors and homogenized in 0.5% SDS, protease inhibitor cocktail (Complete Mini, Roche, Germany), 10 mM EDTA, and 10 mM Tris HCl (pH 8.0). Protein concentration was measured using the NanoDrop instrument (Thermo Scientific, Wilmington, Del.).
(§2) For loading controls, an anti-GAPDH antibody was used (Abcam, Cambridge, Mass.; 1:100,000). After incubation with primary antibody, membranes were incubated with a horseradish-peroxidase-conjugated secondary antibody (anti-rabbit IgG-HRP; Sigma, St. Louis, Mo.; dilution: 1:5,000) for 1 hour at room temperature. SuperSignal West Dura (Thermo Scientific, Waltham, Mass.) was used to visualize bound antigen. Optical densities (OD) of histone protein signals were determined using NIH ImageJ software. ODs were normalized to corresponding ODs obtained for GAPDH.

Series [13] has the same test system. Kind of series: Western blotting of histone proteins, forebrain neocortex of SFR Balb/c mice. Format: in vivo. The method, then: as §1, §2
(In general: A western blot detects proteins with antibodies after separation by electrophoresis.)

For series [14] the test system is unchanged. Description: Western blotting of histone proteins, forebrain neocortex of C57BI/6 mice. Format: in vivo. Conditions: C57BI/6 mice at P60, IMS-fluoxetine, OD normalized to GAPDH, mean ± sem. The method, then:
as §1, §2

The subject of series [15] is aCH4K12 at BDNF promotors. Description: ChIP/real-time PCR, aCH4K12 enrichment at BDNF promotors. The series is classed as in vivo, Balb/c mice. Conditions: non-stressed Balb/c treated P35 to P59; FIG. 15B. From the text:
(§3) Data in (FIG. 15A) are mean±sem of 8 animals per group. Data in (FIG. 15B) and (FIG. 15C) were obtained from ChIP/real-time PCR measures (mean±sem; n=4/group) using antibodies directed against aCH4K12 (FIG. 15B) and Pol II (FIG. 15C). […] Data in (FIG. 15D) are from RT-real-time PCR measures of BDNF mRNA levels (mean±sem, n=5/group). […] All data were compared by ANOVA and significant differences between groups were resolved post hoc using Tukey Kramer multiple comparisons as indicated. In all studies, male and female mice were used.
(In qPCR the cycle at which signal appears reflects the starting amount.)

Series [16] relates to RNA Polymerase II (Pol II) at BDNF promotors. Description: ChIP/real-time PCR, Pol II enrichment at BDNF promotors. Format: in vivo, Balb/c mice. Conditions: non-stressed Balb/c treated P35 to P59; FIG. 15C.
Source text: as §3

For series [17], the system named is SFR Balb/c mice. Conditions: adolescent treatment; Bhansali et al., 2007; cited from earlier work.
The test system of series [18] is HDAC mRNA. Kind of series: Real-time RT-PCR of HDAC mRNA, forebrain neocortex of IMS Balb/c mice.
Source text: as §5, §4
The subject of series [19] is 5-HT/5-HIAA levels in the forebrain neocortex. Conditions: 300 mg/kg twice per day, within 5 days; Gurevich et al., 2002; cited from earlier work.
[20] abbreviates: IMS Balb/c, adolescent fluoxetine vs non-treated IMS.
The mark [21] stands for this setting: IMS Balb/c, adolescent treatment, compared to non-treated IMS Balb/c mice.
[22] abbreviates: IMS Balb/c, fluoxetine during adolescence, OD normalized to GAPDH, mean ± sem.
The mark [23] stands for this setting: IMS Balb/c, treatment P35 to P60, vs non-treated IMS.
Where [24] appears, read: SFR Balb/c, fluoxetine alone or with SAHA, OD normalized to GAPDH, mean ± sem.
Where [25] appears, read: IMS-fluoxetine Balb/c at P60, mean±sem.
Setting [26] is: IMS Balb/c treated between P21 and P35.
Where [27] appears, read: SFR Balb/c, adolescent treatment.

HDAC1, sequence (Q13547 whole entry, species assumed): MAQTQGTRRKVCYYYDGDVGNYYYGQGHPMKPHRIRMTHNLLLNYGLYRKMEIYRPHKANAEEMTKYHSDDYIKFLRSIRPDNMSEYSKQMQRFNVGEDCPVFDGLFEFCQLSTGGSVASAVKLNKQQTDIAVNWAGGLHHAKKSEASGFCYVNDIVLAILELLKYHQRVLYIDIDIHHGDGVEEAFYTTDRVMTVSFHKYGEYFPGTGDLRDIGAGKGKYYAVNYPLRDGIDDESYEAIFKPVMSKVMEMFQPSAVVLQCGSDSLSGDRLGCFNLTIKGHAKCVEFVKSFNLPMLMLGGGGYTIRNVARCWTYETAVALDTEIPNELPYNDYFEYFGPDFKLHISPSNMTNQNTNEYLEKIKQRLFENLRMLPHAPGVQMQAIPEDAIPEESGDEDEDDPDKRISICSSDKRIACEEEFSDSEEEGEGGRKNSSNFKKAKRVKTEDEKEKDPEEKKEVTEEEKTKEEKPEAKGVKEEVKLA

`Cn1c(=O)c2[nH]cnc2n(C)c1=O` [theophylline]: the “time spent in the open arms of the EPM” value in [1] is reported as “did not differ”. Moreover, in series [2], the “immobility in the FST” value was “did not differ”. Further, in series [3], the “activation of HDAC1” value was “activates”. The “activation of HDAC3” value in [4] is reported as “activates”. Also, in series [5], the “antagonist effect on adenosine receptors” value is reported as “no antagonist effect”. Moreover, the inhibition of phosphodiesterases entry in [6] is given as “exerts no”. Besides, the “total immobility time in the FST” value in [7] (IMS Balb/c treated P35 to P60, greater immobility of IMS mice) is “significantly potentiated”. Also, the “number of passive episodes in the FST” value in series [7] (SFR controls, IMS and treated IMS mice) is recorded as “no significant differences”. The “total time spent in open arms of the EPM” value in series [8] (IMS Balb/c treated P35 to P60, vs non-treated IMS mice) is listed as “significantly less time”. The “total number of arm crossings in the EPM” value in series [8] (SFR controls, IMS and treated IMS Balb/c) is reported as “no significant difference”. For the same compound, the “percentages of crossings into open arms” value in [8] (treated IMS Balb/c compared with SFR controls) is “did not reach statistical significance”. For the same compound, in series [9], the “plasma concentrations of theophylline” value is listed as “below 10^−4 M”.

With `CN1c2ccccc2C(NCCCCCCC(=O)O)c2ccc(Cl)cc2S1(=O)=O` (centres unmarked) [tianeptine], the “extracellular 5-HT levels” value in series [10] is recorded as “without marked changes”.

In general, IC50 refers to the midpoint of a concentration-inhibition curve. Consider `CCCC(=O)[O-].[Na+]` [sodium butyrate], for which, in [11], the IC50 was 700 µM.

As to `CNCCC(Oc1ccc(C(F)(F)F)cc1)c1ccccc1` (centres unmarked) [fluoxetine], in series [12] (setting [20]), the “increase in acetylated H3K9 protein” value worked out at 55%, the “increase in acetylated H4K12 protein” value was 230%, the “increase in total histone H3 protein expression” value was 60% and the “increase in total histone H4 protein expression” value was 13%. Besides, in series [12] (setting [21]), the H3K4me3 result is “Increased”, the acH3K9 result is “Increased”, the acH4K5 entry is “Increased” and the acH4K12 result is recorded as “Increased”. For the same compound, the acK4K8 result in [12] (setting [21]) is “Increased”. In series [12] (setting [22]), the H3K4me3 expression is given as 0.94 ± 0.07, the H3K9me2 expression turned out to be 0.93 ± 0.03, the H3 expression is on record as 1.31 ± 0.03 and the acH3K9 expression was 1.21 ± 0.02. Moreover, in series [12] (setting [22]), the acH4K5 expression turned out to be 0.94 ± 0.02, the acH4K8 expression was found to be 1.51 ± 0.06, the acH4K12 expression is recorded as 1.16 ± 0.04 and the acH4K16 expression is 1.04 ± 0.04. Also, the H4 expression in series [12] (IMS Balb/c, fluoxetine during adolescence, OD on Western blots normalized to GAPDH, mean ± sem, n = 5) came out at 0.97 ± 0.05. In series [12] (setting [23]), the “effect on acetylated H4K12 protein expression” value was “significantly increased”, the “effect on acetylated histone H3K9 expression” value is reported as “significantly increased”, the “effect on acetylated histone H4K8 expression” value is reported as “significantly increased” and the “effect on dimethylated histone H3 protein expression” value is “did not change”. Also, in series [12] (setting [23]), the “effect on total H3 protein expression” value is listed as “increased”, the “effect on total H4 protein expression” value is recorded as “increased” and the “effect on trimethylated histone H3 protein expression” value is “increased”. In addition, in series [13] (setting [24]), the H3K4me3 expression came to 1.12 ± 0.02, the H3K9me2 expression was 1.08 ± 0.04, the H3 expression turned out to be 0.96 ± 0.01 and the acH3K9 expression is given as 0.86 ± 0.03. In series [13] (setting [24]), the acH4K5 expression worked out at 0.45 ± 0.06, the acH4K8 expression came out at 0.86 ± 0.06, the acH4K12 expression was found to be 0.80 ± 0.03 and the acH4K16 expression came to 0.70 ± 0.06. Further, the H4 expression in series [13] (SFR Balb/c, fluoxetine alone or with SAHA, OD on Western blots normalized to GAPDH, mean ± sem, n = 5) came out at 1.10 ± 0.04. In series [13] (SFR mice, adolescent fluoxetine 16 mg/kg/day vs vehicle, FIG. 7), the “effect on histone H3/H4 expression” value is reported as “does not alter”. In series [14], the H3K4me3 expression came to 0.94 ± 0.02, the H3K9me2 expression came to 0.89 ± 0.03, the H3 expression came out at 0.98 ± 0.02 and the acH3K9 expression is 1.00 ± 0.03. In addition, in series [14] (n = 5), the H4 expression worked out at 1.00 ± 0.03. Besides, the “time spent in the open arms of the EPM” value in [1] is listed as “did not differ”. Further, the “immobility in the FST” value in [2] was “did not differ”. Moreover, the “immobility in the forced swim test (FST), antidepressant-like effects” value in series [2] (non-stressed Balb/c treated P35 to P59, vs vehicle and fluoxetine-only, FIG. 15A) is “not achieved”. Moreover, in series [15], the “enrichment of aCH4K12 at BDNF promotor P1” value is on record as “higher enrichment” and the “enrichment of aCH4K12 at BDNF promotor P3” value is “higher enrichment”. For the same compound, the “increase of density of Pol II associated with the P3 promotor of the BDNF gene” value in series [16] is “not in fluoxetine-only treated mice”. For the same compound, the “FST behavior of SFR controls” value in series [17] is on record as “had no effect”. Further, the “effect on HDAC mRNA expression levels” value in [18] (IMS Balb/c, treatment P35 to P60, nine HDAC mRNAs) is recorded as “did not alter”. For the same compound, in series [18] (setting [25]), the “HDAC1 mRNA expression, real-time PCR ½^ΔCt” value was determined as 0.011±0.0006; the “HDAC2 mRNA expression, real-time PCR ½^ΔCt” value is reported as 0.0016±0.0001; the “HDAC3 mRNA expression, real-time PCR ½^ΔCt” value stood at 0.055±0.004; the “HDAC4 mRNA expression, real-time PCR ½^ΔCt” value was determined as 0.011±0.002. In [18] (setting [25]), the “HDAC5 mRNA expression, real-time PCR ½^ΔCt” value was found to be 0.044±0.006; the “HDAC7 mRNA expression, real-time PCR ½^ΔCt” value is reported as 0.011±0.001; the “HDAC8 mRNA expression, real-time PCR ½^ΔCt” value is on record as 0.0035±0.0004; the “HDAC9 mRNA expression, real-time PCR ½^ΔCt” value amounted to 0.001±0.0002. The “HDAC10 mRNA expression, real-time PCR ½^ΔCt” value in series [18] (setting [25]) amounted to 0.0074±0.0006.

On to `O=C(CCCCCCC(=O)Nc1ccccc1)NO` [SAHA, suberoylanilide hydroxamic acid], for which, in series [12] (setting [26]), the “effect on development of the adult epigenetic phenotype” value is “did not prevent” and the “effect on the decreased acetylation of histone H4 proteins” value is on record as “prevented”. The “percentage of open arm entries in the EPM” value in series [1] (SFR Balb/c treated during adolescence) was “lowest percentage”. Besides, the “time spent in the open arms of the EPM” value in series [1] was “significantly less time”. Further, the “immobility in the FST” value in [2] is listed as “significantly increased”.

As to `N[C@@H](Cc1ccc(Cl)cc1)C(=O)O` (racemic) [pCPA, para-chlorophenylalanine], in series [19], the “reduction of 5-HT/5-HIAA levels in the forebrain neocortex” value is recorded as “about 80%”.

Turning to `Nc1ccccc1NC(=O)c1ccc(CNC(=O)OCc2cccnc2)cc1` [MS-275], in [13] (setting [27]), the “effect on acetylated H4K5 expression” value was “increased”, the “effect on acetylated H4K8 expression” value is recorded as “increased” and the “effect on acetylated H4K12 expression” value is “increased”.
